Assay results from the NIST ThermoML archive (doi:10.1021/je800560b).
Several values for one entry are separate records, joined by “and”; a condition that tells them apart may be missing. Equal values may be shown once.

Settings: Liquid

O=[Si] [silicon monooxide]
Settings	vapor or sublimation pressure
1301 K	0.00029 kPa and 0.00016 kPa
1315 K	0.0004 kPa and 0.00024 kPa
1325 K	0.0005 kPa and 0.00032 kPa
1335 K	0.00064 kPa and 0.0004 kPa
1350 K	0.00088 kPa and 0.00089 kPa and 0.00057 kPa
1364 K	0.00123 kPa and 0.00082 kPa
1374 K	0.00155 kPa and 0.00152 kPa and 0.00103 kPa
1399 K	0.0026 kPa and 0.00175 kPa
1421 K	0.0042 kPa and 0.00287 kPa
1433 K	0.0054 kPa and 0.0037 kPa
1446 K	0.0071 kPa and 0.0048 kPa
1470 K	0.0116 kPa and 0.0114 kPa and 0.0079 kPa
1495 K	0.0185 kPa and 0.0177 kPa and 0.0127 kPa
1519 K	0.029 kPa and 0.027 kPa and 0.0201 kPa
